Measured values: patent publication US20140370521A1, “IDENTIFICATION OF TWO NOVEL BIOMARKERS FOR NIEMANN-PICK DISEASE TYPE C” (The USA , as Represented by the Secretary, Department of …, priority 2011, published 2014)
Entries after “also recorded” stand apart in the source; their conditions may differ.

Columns and labels:
cathepsin D (CTSD) = assay: Serum cathepsin D (CTSD) by ELISA in NPC1 patients treated or not with miglustat; type: in vivo, human
Protocol: (§1) Since 60% of the patients were being treated with off-label miglustat, the effect of treatment on LGALS3 or CTSD concentrations were investigated. […] Since individual responses could be masked by the large degree of variation between patients, LGALS3 and CTSD concentrations were also assessed in serum samples from six patients before and after they begin the treatment.
(§2) The study was approved by the Eunice Kennedy Shriver National Institute of Child Health and Human Development Institutional Review Board. Informed consent and, when appropriate, assent were obtained. Serum samples were obtained from 16 male and 14 female NPC1 patients participating in a Natural History trial (06-CH-0186) and 16 control individuals of similar age and gender distribution. Mean age of patients and controls were 7.9±5.8 years old and 9.1±4.2 years old respectively (P-value=0.3720). Phenotypic severity was determined using the severity scale developed by Yanjanin et al., Am. J. Med. Genet. B. Neuropsychiatr. Genet. 153B:132-40 (2010), and ranged from 0 to 40. […]
(§3) Serum levels of cathepsin D (CTSD; EMD Millipore, Billerica, Mass.), and galectin-3 (LGALS3; R&D systems, Minneapolis, Minn.) were measured in triplicate by ELISA, following manufacturers' instructions. […]

[1] = NPC patients; Patterson et al., Lancet Neurol. 6:765-72 (2007); cited from earlier work
galectin-3 (LGALS3) = assay: Serum galectin-3 (LGALS3) by ELISA in NPC1 patients treated or not with miglustat; type: in vivo, human
Protocol: as §1, §2, §3

CCCCN1C[C@H](O)[C@@H](O)[C@H](O)[C@H]1CO [miglustat]
CTSD concentrations in serum of NPC patients treated or not with miglustat (cathepsin D (CTSD); NPC1 patients, off-label miglustat versus untreated group, serum, FIG. 7C): No statistical difference; also recorded: no significant differences | Effect of miglustat treatment on CTSD level, before versus after start of treatment (cathepsin D (CTSD); six patients, serum samples before and after beginning treatment, FIG. 7E): did not have any effect | Efficacy in slowing the neurological progression of the disease [1]: has shown efficacy in slowing the neurological progression of the disease | LGALS3 concentrations in serum of NPC patients treated or not with miglustat (galectin-3 (LGALS3); NPC1 patients, off-label miglustat versus untreated group, serum, FIG. 7B): No statistical difference; also recorded: no significant differences | Effect of miglustat treatment on LGALS3 level, before versus after start of treatment (galectin-3 (LGALS3); six patients, serum samples before and after beginning treatment, FIG. 7D): did not have any effect
